# Reference: paper PMC11314199, “Design, Synthesis, and Biological Evaluations of Novel Thiazolo[4,5-d]pyrimidine Corticotropin Releasing Factor (CRF) Receptor Antagonists as Potential Treatments for Stress Related Disorders and Congenital Adrenal Hyperplasia (CAH)” (Molecules, 2024)
# Like-named read-outs stand apart in the source and are kept apart here.
# Assays:
# [1] = target: T1, human CRF1 receptors (Homo sapiens, UniProt P34998); assay: Primary screening: inhibition of specific [125I]-Tyr0 sauvagine binding at a single concentration of 100 nM; settings: 100 nM test compound; membranes from HEK 293 cells stably expressing CRF1 receptors
# T1 construct: expressed in transfected cells
# T1 sequence (P34998 24-415): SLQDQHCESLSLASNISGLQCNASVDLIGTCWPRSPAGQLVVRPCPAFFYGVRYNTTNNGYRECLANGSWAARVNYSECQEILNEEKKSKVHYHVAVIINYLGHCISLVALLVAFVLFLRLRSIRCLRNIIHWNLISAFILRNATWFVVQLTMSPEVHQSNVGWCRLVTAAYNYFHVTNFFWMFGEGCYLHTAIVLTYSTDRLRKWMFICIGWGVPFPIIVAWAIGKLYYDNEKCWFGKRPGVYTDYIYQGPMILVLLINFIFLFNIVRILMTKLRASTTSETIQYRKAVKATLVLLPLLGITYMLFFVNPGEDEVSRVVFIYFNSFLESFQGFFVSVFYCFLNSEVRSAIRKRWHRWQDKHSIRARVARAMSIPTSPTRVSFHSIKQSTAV
# Method: An investigation of the specific binding was carried out in membrane homogenates extracted from human embryonic kidney (HEK 293) cells stably expressing CRF1 receptors, a standard methodology previously detailed in several of our published works. This experimental approach closely adheres to the original Gkountelias et al. procedure.
# The CRF1 receptor binding affinities for final target compounds 1–23 were evaluated. First, the ability of the entire test compounds to inhibit the specific binding of the radiolabelled ligand [^125I]-Tyr^0 sauvagine to membranes from HEK 293 cells stably expressing the CRF1 receptors was evaluated at a single concentration of 100 nM.
# Figure 5 % inhibition of [^125I]-Try^0 sauvagine-specific binding by 100 nM of test compounds on membranes from HEK293 stably expressing human CRF1 receptors. In the absence of the test compound, the inhibition is 0%.
# In this protocol, a radiolabeled agonist, which is [^125I]-Tyr^0-sauvagine is used. The cell culture medium that was used to grow these cells consisted of DMEM/F12 (1:1) supplemented with 10% bovine calf serum, 3.15 g/L glucose, and […] of the antibiotic geneticin. The cells were then incubated at a temperature of 37 °C with 5% CO2. After a suitable time was given to grow the expected number of cells to the required cell density, the cells were washed with phosphate-buffered saline (PBS) at a neutral pH of 7.2–7.3. This was followed by treatment with 2 mM EDTA containing PBS (PBS/EDTA). The suspension of cells was pitted under centrifugation at a speed of 1000× g for a period of 5 min, after which the resulting pellets were allowed to be homogenized in 1.5 mL of buffer H with the following composition: 20 mM HEPES, 10 mM MgCl2, 2 mM EGTA, 0.2 mg/mL bacitracin antibiotic, and 0.93 mg/mL aprotinin at pH 7.2 at 4 °C. The homogenizer used was a Janke & Kunkel IKA Ultra Turrax T25 homogenizer (IKA Werke GmbH & Co. KG, Staufen, Germany). The homogenates were then put into a centrifuge to be centrifuged at a speed of 16,000× g, for a period of 10 min, at 4 °C. The resulting membrane pellets were again suspended in a homogenizer in 1 mL of buffer B, which is buffer H containing BSA (0.1%) at a pH of 7.2 at 20 °C. After that, the membrane suspensions were diluted using buffer B and 50 μL aliquots of the suspensions and 20–25 pM of the radiolabeled ligand [^125I]-Tyr^0sauvagine with (test) and then without (positive control) the compounds to be evaluated at a single concentration of 100 nM.
# [2] = target: T1, human CRF1 receptors; assay: Competition binding of [125I]-Tyr0 sauvagine under equilibrium conditions (secondary assay); settings: [125I]-Tyr0 sauvagine competition, HEK 293 membranes expressing CRF1 receptors
# Method: In the second assay, the inhibitory effects measured by the lead compounds were compared to those of the standard drug antalarmin.
# Figure 6 Competitive binding isotherms of compounds 2, 5, and 14 (a), compounds 10 and 23 (b), compounds 19 and 20 (c) and 21 and 22 (d) to human CRF1 receptors. Antalarmin was used as a standard drug.
# In this competitive binding assay, different and increasing concentrations of the test compounds were used. The final volume of the tubes was adjusted to 0.2 mL using buffer B (the composition mentioned earlier). The test mixtures were then incubated at a temperature of 21 °C for a period of two hours. Then it was filtered through presoaked Whatman 934AH filter papers (in a solution of 0.3% polyethylene imine for 1 h at a temperature of 4 °C). The filter papers were then washed with a solution of 0.5 mL of ice-cold PBS containing 0.01% Triton X-100, and the washing process was repeated three times at pH 7.1. To measure the radioactivity, a gamma radiation counter was utilized. The quantity of membranes used was adjusted to make sure that the specific binding is always equal to or less than 10% of the total concentration of the added radiolabeled sauvagine. The specific [^125I]-Tyr^0-sauvagine binding was defined as the total binding minus the non-specific binding in the presence of 1000 nM of the standard antagonist Antalarmin. Non-linear regression analysis was used for data analysis, and Log IC50 values for the test compounds in comparison to the standard antagonist antalarmin were calculated by fitting the data from the competition studies into a one-site competition model. The statistical analysis was performed using Prism 4.0 (GraphPad Software, San Diego, CA, USA).
# Statistical analysis was performed using Prism 4.0 (Graph Pad Software, San Diego, CA, USA). Non-linear regression analysis was used in the competitive binding studies. Log IC50 values were calculated by fitting the data from the competition studies to a one-site competition model.
# [3] = tested on: CRF1R; set-up: method as in PMID 7846062; settings: cited from earlier work
Molecule,inhibition at 0.1 µM [1] [%],IC50 ([2]; read-out: IC50) [nM],"IC50 ([2]; Log IC50 as printed (negative sign), read-out: Log IC50 ± SE (converted)) [nM]",% inhibition of [125I]-Tyr0 sauvagine-specific binding [1],binding affinity to CRF1R relative to binding to CRF2R [3]
Corticotropin-releasing factor [CRF],–,–,–,–,almost eight times higher
"CCCN(CC1CC1)c1nc(C)nc2c1s/c(=N\C)n2-c1ccc(OC)cc1C [Compound 22, 7-(N-Propyl-N-(cyclopropylmethyl))amino-2-(methylimino)-5-methyl-3-(2-methyl-4-methoxylphenyl)-2,3-dihydrothiazolo[4,5-d]pyrimidine]",> 50,91.6,–,significantly higher inhibitory effects than compounds 9 and 17,–
"CCC(CC)Nc1nc(C)nc2c1sc(=NC)n2-c1ccc(OC)cc1C [Compound 23, 7-(N-Pentan-3-yl)amino-2-(methylimino)-5-methyl-3-(2-methyl-4-methoxylphenyl)-2,3-dihydrothiazolo[4,5-d]pyrimidine]",> 50,111,–,–,–
"CCCCN(CC)c1nc(C)nc2c1sc(=NC)n2-c1ccc(C)cc1C [Compound 14, 7-(N-Butyl-N-ethylamino)-2-(methylimino)-5-methyl-3-(2,4-dimethylphenyl)-2,3-dihydrothiazolo[4,5-d]pyrimidine]",> 50,144,–,–,–
"CCCCCN(CCCCC)c1nc(C)nc2c1sc(=NC)n2-c1ccc(C(C)C)cc1Br [Compound 11, 7-(N,N-Dipentylamino)-2-(methylimino)-5-methyl-3-(2-bromo-4-isopropylphenyl)-2,3-dihydrothiazolo[4,5-d]pyrimidine]",–,–,–,reduced activity compared to compounds 10 and 13,–
"CCCC(CCC)Nc1nc(C)nc2c1sc(=NC)n2-c1ccc(C)cc1C [Compound 19, 7-(N-Heptan-4-yl)amino-2-(methylimino)-5-methyl-3-(2,4-dimethylphenyl)-2,3-dihydrothiazolo[4,5-d]pyrimidine]",> 50,41.1,–,–,–

# Further lines, with some results ahead:
inhibition at 0.1 µM [1] [%],IC50 ([2]; read-out: IC50) [nM],"IC50 ([2]; Log IC50 as printed (negative sign), read-out: Log IC50 ± SE (converted)) [nM]",Molecule,% inhibition of [125I]-Tyr0 sauvagine-specific binding [1],binding affinity to CRF1R relative to binding to CRF2R [3]
> 50,11.1,–,"CCCN(CC1CC1)c1nc(C)nc2c1s/c(=N\C)n2-c1ccc(Cl)cc1Cl [Compound 5, 7-(N-Propyl-N-(cyclopropylmethyl))amino-2-(methylimino)-5-methyl-3-(2,4-dichlorophenyl)-2,3-dihydrothiazolo[4,5-d]pyrimidine]",significantly higher inhibitory effects than compounds 9 and 17,–
> 50,9.16,–,"CCCCN(CC)c1nc(C)nc2c1sc(=NC)n2-c1ccc(OC)cc1C [Compound 20, 7-(N-Butyl-N-ethylamino)-2-(methylimino)-5-methyl-3-(2-methyl-4-methoxylphenyl)-2,3-dihydrothiazolo[4,5-d]pyrimidine]",–,–
> 50,31,–,"CN=c1sc2c(N(CCOC)CCOC)nc(C)nc2n1-c1ccc(C(C)C)cc1Br [Compound 10, 7-(N,N-Bis(2-methoxyethyl)amino)-2-(methylimino)-5-methyl-3-(2-bromo-4-isopropylphenyl)-2,3-dihydrothiazolo[4,5-d]pyrimidine]",–,–
> 50,6.1,6.03,"CCCN(CCC)c1nc(C)nc2c1sc(=NC)n2-c1ccc(Cl)cc1Cl [Compound 2, 7-(N,N-Dipropylamino)-2-(methylimino)-5-methyl-3-(2,4-dichlorophenyl)-2,3-dihydrothiazolo[4,5-d]pyrimidine]",–,–
–,16.6,–,"CCCCN(CC)c1nc(C)nc2c1c(C)c(C)n2-c1c(C)cc(C)cc1C [antalarmin, reference compound]",–,–
> 50,13.1,–,"CCCN(CCC)c1nc(C)nc2c1sc(=NC)n2-c1ccc(OC)cc1C [Compound 21, 7-(N,N-Dipropylamino)-2-(methylimino)-5-methyl-3-(2-methyl-4-methoxylphenyl)-2,3-dihydrothiazolo[4,5-d]pyrimidine]",–,–
